Reference: patent US10227343B2, “Isoquiniline and napthalene-substituted compounds as mGluR4 allosteric potentiators, compositions, and methods of treating neurological dysfunction” (Vanderbilt University, priority 2015, dated 2019)

System: haloperidol induced catalepsy
Assay: reversal of haloperidol induced catalepsy
Assay type: in vivo, Sprague-Dawley rats
Details: rats, haloperidol 1.5 mg/kg i.p., compound 0.1-56.6 mg/kg oral, tested 30 minutes after compound; data in FIG. 5
Method: Animals. Male Sprague-Dawley rats weighing between 275 and 300 g (Harlan Laboratories, Indianapolis, Ind.) were used for the behavioral studies and were maintained in accordance with American Association for the Accreditation of Laboratory Animal Care guidelines under a 12-h light/dark cycle (lights on at 6 AM, lights off at 6 PM) with free access to food and water. The experimental procedures, which were performed during the light cycle, were approved by the Institutional Animal Care and Use Committee of Vanderbilt University and conformed to the guidelines established by the National Research Council Guide for the Care and Use of laboratory Animals. Rats were injected with haloperidol (1.5 mg/kg, i.p., dissolved in 8.5% lactic acid, pH=6) 60 minutes prior to the oral administration of Example 46 ((0.1-56.6 mg/kg) or vehicle (10% Tween 80). 30 minutes after compound administration all rats were tested for catalepsy. Catalepsy was assessed using a horizontal bar placed 6 cm from the testing surface. The forepaws of each rat were placed gently on the bar with the body positioned at an angle of ˜45° to the testing surface. The latency in seconds required for the rat to remove one or both forepaws from the bar was manually measured with a cutoff of 30 seconds.

Structure (SMILES): FC(F)(F)c1nccc2cc(Nc3n[nH]c4ncccc34)ccc12 [Example 46, N-(1H-pyrazolo[3,4-b]pyridin-3-yl)-1-(trifluoromethyl) isoquinolin-6-amine]
- reversal of haloperidol induced catalepsy: reversal of haloperidol induced catalepsy
